Experimental data as given in patent US20050192279A1, “Pyridazinones as antagonists of alpha4 integrins” (priority 2004, published 2005).

Test system: TNBS induced colitis
Test: Trinitrobenzenesulfonic acid (TNBS) Induced Colitis, rats
Assay type: in vivo, Male Wistar rats
Settings: rat
Source text: In Vivo Model: Trinitrobenzenesulfonic acid (TNBS) Induced Colitis The TNBS model of experimental colitis (Bobin-Dubigeon, C., Collin, X., Grimaud, N., Robert, J-M., Guillaume Le Baut, G., and Petit, J-Y. Effects of tumour necrosis factor-a synthesis inhibitors on rat trinitrobenzene sulphonic acid-induced chronic colitis. Eur. J. […] These symptomatic signs in the above—mentioned models are similar to what occur in human colitis. Male Wistar rats (200-250 g) are inoculated with 500 microliters of a solution of 10 to 20 mg of TNBS in 30% ethanol delivered intracolonically via catheter or ball-tipped gavage needle to the 8th cm from the anus. When Balb/c female mice (8-12 weeks of age) were used, the inoculation volume was 50 microliters containing 2-3 mg of TNBS in 30% ethanol delivered intracolonically via catheter or ball-tipped gavage needle to the 4th cm from the anus. During the ensuing 7 days, test animals were administered a preparation of an experimental compound. This material may be administered orally, subcutaenously or intraperitoneally, once or twice daily. At the end of this period, the animals were euthanized and their colons were collected for further analysis. Among the parameters analyzed were the length of the colon starting from the anus to the top of the cecum, the weight of the colon, the consistency of any stools found within the colon, the presence or absence of intraperitoneal adhesions on the serosal surfacr of the intestin, and the gross macroscopic appearance of the colon. […] In rats, the distal colon between the 5th and the 8th centimeter is dissected and placed in 10% neutral buffered formalin for later histological analysis. In mice, the 1st to the 4th cm was collected for histological analyses. For the following parameters—colon length, colon weight, stool consistency and appearance and macroscopic damage—a scoring system was used to describe the changes. The four scores for each animal were added to provide a Total Score. […] For the presence of blood in stool, one point was added to scores <3. […] Histological analyses of tissues consisted of staining paraffin-embedded tissue sections with hematoxylin-eosin dye. Epithelial damage scores were determined as the fraction of the tissue section showing damaged epithelium. […] Statistic analyses for these experiments performed with Graphpad Prism 4.0, using ANOVA, with Dunnets or Bonferroni's multiple comparisons test.

Compound: COc1cnn(C)c(=O)c1-c1ccc(C[C@H](NC(=O)c2c(Cl)cccc2Cl)C(=O)O)cc1 [Cpd 17]
- % Inhibition of Epithelial Damage Score (10 mg/kg sc bid): −5.822%
- % Inhibition of Total Macroscopic Score (10 mg/kg sc bid): −1.638%
- % Inhibition of Epithelial Damage Score (30 mg/kg sc bid): 8.5%
- % Inhibition of Total Macroscopic Score (30 mg/kg sc bid): −4.117%
